Assay results published in ChEMBL document CHEMBL3390844, “Development of substituted 7-phenyl-4-aminobenzothieno[3,2-d] pyrimidines as potent LIMK1 inhibitors” (Medchemcomm, 2011).
In brackets after ≈: the same amount, converted by molar mass.

Experiments:
LIM domain kinase 1 [1] = biological target: T1, LIM domain kinase 1 (Homo sapiens, UniProt P53667); assay: Inhibition of LIMK1 (unknown origin) assessed as ADP formation using cofilin-2 protein as substrate measured after 60 mins incubation with enzyme by Transcreener assay
[2] = Solubility of the compound in phosphate buffer at pH 6.5 by nephelometry; format: physicochemical
[3] = Solubility of the compound in 0.01 M HCl at pH 2 by nephelometry; format: physicochemical
[4] = Partition coefficient, log D of the compound at pH 7.4 by HPLC analysis; format: physicochemical; conditions: octanol/water
[5] = In vitro intrinsic clearance in mouse liver microsomes at 1 uM by LC-MS analysis; format: ADME; conditions: read-out: CLH
[6] = In vitro intrinsic clearance in human liver microsomes at 1 uM by LC-MS analysis; format: ADME; conditions: read-out: CLH
LIM domain kinase 1 [7] = biological target: T1, LIM domain kinase 1; assay: Inhibition of LIMK1-catalyzed cofilin phosphorylation in human ZR-75-1 cells; format: cell-based
LIM domain kinase 2 = LIM domain kinase 2 (Homo sapiens, UniProt P53671); assay: Inhibition of LIMK2 (unknown origin)
CYP3A4 = CYP3A4 (Homo sapiens, UniProt P08684); assay: Inhibition of CYP3A4 in human liver microsomes assessed as reduction in apparent rate of formation of metabolites using midazolam or testosterone as substrate at 20 uM by LC-MS analysis; format: ADME; conditions: probe midazolam or testosterone
CYP1A2 = biological target: T2, CYP1A2 (Homo sapiens, UniProt P05177); assay: Inhibition of CYP1A2 in human liver microsomes assessed as reduction in apparent rate of formation of metabolites using phenacetin as substrate at 20 uM by LC-MS analysis; format: ADME; conditions: probe phenacetin
T2 sequence (P05177 whole entry): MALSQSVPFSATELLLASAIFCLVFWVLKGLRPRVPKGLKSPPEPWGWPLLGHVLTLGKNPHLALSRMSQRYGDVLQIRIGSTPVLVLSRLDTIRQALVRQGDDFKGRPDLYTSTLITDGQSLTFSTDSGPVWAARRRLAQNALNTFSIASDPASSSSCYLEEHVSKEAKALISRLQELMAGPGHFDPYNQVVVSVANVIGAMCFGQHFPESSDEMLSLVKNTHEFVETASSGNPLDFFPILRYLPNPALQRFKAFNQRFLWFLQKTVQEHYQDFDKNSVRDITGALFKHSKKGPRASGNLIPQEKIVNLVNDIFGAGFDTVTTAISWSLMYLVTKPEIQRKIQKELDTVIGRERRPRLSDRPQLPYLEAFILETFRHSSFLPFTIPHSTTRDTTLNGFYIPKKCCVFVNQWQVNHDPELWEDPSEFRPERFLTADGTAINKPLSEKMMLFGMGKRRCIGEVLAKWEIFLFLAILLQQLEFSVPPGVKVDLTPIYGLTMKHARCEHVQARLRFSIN

hERG (KCNH2) = hERG (KCNH2) (Homo sapiens, UniProt Q12809); assay: Inhibition of human ERG at 10 uM by fluorescence polarization assay
[8] = biological target: Tyrosine-protein kinase JAK1 (Homo sapiens) (UniProt P23458); assay: Inhibition of JAK1 (unknown origin) at 1 uM
[9] = biological target: Tyrosine-protein kinase JAK2 (Homo sapiens) (UniProt O60674); assay: Inhibition of JAK2 (unknown origin) at 1 uM
[10] = biological target: T3, Tyrosine-protein kinase JAK3 (Homo sapiens) (UniProt P52333); assay: Inhibition of JAK3 (unknown origin) at 1 uM
T3 sequence (whole entry): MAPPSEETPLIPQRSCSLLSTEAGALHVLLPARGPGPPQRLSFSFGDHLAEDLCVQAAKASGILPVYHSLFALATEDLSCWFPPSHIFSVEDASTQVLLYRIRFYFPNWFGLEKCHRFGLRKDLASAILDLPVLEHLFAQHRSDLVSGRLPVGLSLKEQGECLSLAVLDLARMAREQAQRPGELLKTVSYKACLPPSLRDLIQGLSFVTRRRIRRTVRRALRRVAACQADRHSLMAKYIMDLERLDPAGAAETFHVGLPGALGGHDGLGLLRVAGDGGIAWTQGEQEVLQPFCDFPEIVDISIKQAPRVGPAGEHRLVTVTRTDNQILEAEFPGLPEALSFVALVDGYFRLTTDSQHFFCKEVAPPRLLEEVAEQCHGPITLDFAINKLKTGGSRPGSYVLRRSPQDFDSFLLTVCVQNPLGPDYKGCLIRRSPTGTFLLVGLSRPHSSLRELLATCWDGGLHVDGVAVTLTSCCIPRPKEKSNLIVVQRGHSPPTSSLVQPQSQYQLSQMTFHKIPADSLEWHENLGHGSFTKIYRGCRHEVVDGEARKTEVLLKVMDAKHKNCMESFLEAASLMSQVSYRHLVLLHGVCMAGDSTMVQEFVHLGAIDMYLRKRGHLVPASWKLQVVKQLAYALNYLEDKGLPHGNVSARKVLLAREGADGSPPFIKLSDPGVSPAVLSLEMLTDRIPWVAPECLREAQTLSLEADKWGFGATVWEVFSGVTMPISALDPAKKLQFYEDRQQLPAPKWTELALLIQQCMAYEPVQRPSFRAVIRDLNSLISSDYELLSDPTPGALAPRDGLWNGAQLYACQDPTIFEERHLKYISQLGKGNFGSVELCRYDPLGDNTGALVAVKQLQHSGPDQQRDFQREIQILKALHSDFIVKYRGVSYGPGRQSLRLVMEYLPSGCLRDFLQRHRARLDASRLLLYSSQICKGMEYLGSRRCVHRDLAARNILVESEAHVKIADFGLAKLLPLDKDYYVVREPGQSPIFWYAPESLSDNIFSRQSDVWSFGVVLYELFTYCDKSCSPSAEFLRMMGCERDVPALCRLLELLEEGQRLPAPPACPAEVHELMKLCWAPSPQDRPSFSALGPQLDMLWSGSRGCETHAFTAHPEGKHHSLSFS

[11] = biological target: Tyrosine-protein kinase Lck (Homo sapiens) (UniProt P06239); assay: Inhibition of Lck (unknown origin) at 1 uM
[12] = biological target: Proto-oncogene tyrosine-protein kinase Src (Homo sapiens) (UniProt P12931); assay: Inhibition of Src (unknown origin) at 1 uM
[13] = biological target: Serine/threonine-protein kinase PAK 4 (Homo sapiens) (UniProt O96013); assay: Inhibition of PAK4 (unknown origin) at 1 uM
[14] = biological target: Serine/threonine-protein kinase PAK 1 (Homo sapiens) (UniProt Q13153); assay: Inhibition of PAK1 (unknown origin) at 1 uM
[15] = biological target: Rho-associated protein kinase 2 (Homo sapiens) (UniProt O75116); assay: Inhibition of ROCK2 (unknown origin) at 1 uM
CYP2D6 (Homo sapiens) = assay: Inhibition of CYP2D6 in human liver microsomes assessed as reduction in apparent rate of formation of metabolites using dextromethorphan as substrate at 20 uM by LC-MS analysis; conditions: probe dextromethorphan
[16] = Plasma protein binding in human by LC-MS analysis; format: ADME, cell-free; conditions: read-out: PPB (converted)

T1 sequence (P53667 whole entry, the tested form may be a part): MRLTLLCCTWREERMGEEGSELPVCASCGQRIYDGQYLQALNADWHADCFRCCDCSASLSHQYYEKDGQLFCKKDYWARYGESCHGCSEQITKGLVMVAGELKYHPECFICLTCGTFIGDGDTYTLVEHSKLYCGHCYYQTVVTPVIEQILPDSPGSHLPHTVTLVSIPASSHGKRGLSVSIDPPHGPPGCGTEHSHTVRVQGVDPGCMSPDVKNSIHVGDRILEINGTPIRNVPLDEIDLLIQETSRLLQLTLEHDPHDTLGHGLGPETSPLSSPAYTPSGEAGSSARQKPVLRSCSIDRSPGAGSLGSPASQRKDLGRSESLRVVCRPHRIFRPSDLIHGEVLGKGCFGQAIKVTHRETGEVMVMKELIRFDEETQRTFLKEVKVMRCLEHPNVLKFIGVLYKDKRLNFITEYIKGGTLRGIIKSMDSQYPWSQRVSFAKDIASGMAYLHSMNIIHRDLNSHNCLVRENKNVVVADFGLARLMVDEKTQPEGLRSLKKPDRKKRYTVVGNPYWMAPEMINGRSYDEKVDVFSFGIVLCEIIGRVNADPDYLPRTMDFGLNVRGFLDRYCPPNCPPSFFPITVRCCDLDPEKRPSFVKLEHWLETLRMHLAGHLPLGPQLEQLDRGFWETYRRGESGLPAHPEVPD
Sequence of CYP3A4 (P08684 whole entry): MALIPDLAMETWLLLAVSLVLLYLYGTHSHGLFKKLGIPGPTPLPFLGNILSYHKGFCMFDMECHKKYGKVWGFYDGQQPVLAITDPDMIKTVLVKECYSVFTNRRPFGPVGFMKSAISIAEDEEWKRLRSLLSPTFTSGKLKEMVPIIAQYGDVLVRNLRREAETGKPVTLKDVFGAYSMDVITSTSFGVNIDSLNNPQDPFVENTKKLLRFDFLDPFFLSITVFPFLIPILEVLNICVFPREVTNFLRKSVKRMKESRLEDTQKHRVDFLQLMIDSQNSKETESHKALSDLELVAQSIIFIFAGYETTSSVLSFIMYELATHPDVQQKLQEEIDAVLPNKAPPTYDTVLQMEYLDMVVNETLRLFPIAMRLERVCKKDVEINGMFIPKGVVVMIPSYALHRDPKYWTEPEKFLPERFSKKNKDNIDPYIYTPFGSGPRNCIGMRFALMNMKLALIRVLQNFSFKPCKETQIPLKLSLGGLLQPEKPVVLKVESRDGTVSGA
Sequence of Tyrosine-protein kinase JAK2 (Homo sapiens) (O60674 whole entry): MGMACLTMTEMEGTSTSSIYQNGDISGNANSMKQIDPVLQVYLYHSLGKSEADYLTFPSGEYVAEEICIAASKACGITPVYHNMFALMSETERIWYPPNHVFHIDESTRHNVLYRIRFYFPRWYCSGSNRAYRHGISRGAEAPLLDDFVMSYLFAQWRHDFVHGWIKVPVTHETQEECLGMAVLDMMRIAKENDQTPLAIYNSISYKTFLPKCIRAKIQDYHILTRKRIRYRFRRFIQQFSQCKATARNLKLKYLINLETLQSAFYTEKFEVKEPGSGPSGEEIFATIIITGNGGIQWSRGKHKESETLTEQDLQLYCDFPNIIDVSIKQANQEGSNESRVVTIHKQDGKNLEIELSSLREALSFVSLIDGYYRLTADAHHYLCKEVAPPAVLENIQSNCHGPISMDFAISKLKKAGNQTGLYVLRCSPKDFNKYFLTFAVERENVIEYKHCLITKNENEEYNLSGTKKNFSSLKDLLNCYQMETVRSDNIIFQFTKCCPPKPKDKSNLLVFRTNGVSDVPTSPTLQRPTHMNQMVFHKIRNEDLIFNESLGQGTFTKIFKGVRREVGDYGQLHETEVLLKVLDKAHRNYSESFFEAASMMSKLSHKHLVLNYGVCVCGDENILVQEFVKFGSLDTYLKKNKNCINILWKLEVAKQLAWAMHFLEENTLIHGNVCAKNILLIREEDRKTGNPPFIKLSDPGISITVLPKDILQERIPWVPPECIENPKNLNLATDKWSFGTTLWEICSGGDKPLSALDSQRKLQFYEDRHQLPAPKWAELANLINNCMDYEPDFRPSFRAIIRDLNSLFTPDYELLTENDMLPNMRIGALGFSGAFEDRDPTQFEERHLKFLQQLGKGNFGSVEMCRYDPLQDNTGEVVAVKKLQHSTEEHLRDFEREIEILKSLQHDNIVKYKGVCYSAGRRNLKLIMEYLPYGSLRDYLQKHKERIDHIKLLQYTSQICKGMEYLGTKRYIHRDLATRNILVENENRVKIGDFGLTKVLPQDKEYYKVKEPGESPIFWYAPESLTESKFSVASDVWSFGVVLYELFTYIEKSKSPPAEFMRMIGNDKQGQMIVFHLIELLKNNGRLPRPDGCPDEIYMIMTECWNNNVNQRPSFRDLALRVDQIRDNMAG
Sequence of Serine/threonine-protein kinase PAK 1 (Homo sapiens) (Q13153 whole entry): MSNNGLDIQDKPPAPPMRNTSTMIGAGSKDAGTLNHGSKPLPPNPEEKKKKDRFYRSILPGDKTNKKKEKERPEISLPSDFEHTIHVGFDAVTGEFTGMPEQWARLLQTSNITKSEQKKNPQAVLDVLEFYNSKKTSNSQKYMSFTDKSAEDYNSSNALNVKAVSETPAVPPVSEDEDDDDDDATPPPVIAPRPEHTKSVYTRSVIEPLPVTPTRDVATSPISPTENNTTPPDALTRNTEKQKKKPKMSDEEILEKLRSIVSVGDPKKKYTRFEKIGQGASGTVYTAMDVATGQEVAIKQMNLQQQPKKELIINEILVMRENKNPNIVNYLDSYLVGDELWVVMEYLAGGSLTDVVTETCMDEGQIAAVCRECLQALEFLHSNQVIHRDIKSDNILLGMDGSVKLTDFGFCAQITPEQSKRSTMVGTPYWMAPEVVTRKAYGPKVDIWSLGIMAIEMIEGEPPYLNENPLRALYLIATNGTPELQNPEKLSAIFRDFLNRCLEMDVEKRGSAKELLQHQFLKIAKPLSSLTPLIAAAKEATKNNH
Sequence of LIM domain kinase 2 (P53671 whole entry, the tested form may be a part): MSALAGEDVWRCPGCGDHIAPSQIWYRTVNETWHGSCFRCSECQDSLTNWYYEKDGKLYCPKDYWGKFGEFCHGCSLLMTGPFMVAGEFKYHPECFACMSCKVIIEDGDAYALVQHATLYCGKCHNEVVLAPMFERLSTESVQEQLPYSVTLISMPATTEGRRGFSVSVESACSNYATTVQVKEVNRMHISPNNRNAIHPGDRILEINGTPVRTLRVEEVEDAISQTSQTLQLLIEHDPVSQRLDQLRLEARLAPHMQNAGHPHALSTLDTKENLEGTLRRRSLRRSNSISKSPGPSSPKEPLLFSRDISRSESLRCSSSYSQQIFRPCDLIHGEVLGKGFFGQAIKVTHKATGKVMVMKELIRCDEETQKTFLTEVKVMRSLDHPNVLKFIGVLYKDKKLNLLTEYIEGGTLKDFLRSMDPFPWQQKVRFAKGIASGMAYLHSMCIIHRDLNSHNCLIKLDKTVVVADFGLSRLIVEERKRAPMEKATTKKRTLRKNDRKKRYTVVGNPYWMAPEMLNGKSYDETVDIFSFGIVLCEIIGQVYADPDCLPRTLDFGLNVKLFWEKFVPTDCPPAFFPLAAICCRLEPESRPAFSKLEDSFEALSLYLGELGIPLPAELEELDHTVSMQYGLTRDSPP
Sequence of Tyrosine-protein kinase Lck (Homo sapiens) (P06239 2-509 limits assumed): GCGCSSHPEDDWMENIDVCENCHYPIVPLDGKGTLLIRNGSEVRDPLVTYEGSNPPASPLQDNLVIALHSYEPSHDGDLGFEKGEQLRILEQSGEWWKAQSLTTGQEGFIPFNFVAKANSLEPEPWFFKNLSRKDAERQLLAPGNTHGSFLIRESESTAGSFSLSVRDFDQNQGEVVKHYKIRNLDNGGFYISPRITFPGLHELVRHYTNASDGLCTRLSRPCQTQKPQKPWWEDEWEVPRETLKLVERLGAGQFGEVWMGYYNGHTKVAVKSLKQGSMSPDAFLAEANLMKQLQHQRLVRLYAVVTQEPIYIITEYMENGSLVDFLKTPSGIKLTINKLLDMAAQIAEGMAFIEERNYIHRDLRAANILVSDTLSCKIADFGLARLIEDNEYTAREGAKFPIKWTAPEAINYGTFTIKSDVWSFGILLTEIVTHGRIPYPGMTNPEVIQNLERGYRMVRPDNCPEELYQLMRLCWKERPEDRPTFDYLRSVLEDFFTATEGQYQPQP
Sequence of Proto-oncogene tyrosine-protein kinase Src (Homo sapiens) (P12931 2-536 limits assumed): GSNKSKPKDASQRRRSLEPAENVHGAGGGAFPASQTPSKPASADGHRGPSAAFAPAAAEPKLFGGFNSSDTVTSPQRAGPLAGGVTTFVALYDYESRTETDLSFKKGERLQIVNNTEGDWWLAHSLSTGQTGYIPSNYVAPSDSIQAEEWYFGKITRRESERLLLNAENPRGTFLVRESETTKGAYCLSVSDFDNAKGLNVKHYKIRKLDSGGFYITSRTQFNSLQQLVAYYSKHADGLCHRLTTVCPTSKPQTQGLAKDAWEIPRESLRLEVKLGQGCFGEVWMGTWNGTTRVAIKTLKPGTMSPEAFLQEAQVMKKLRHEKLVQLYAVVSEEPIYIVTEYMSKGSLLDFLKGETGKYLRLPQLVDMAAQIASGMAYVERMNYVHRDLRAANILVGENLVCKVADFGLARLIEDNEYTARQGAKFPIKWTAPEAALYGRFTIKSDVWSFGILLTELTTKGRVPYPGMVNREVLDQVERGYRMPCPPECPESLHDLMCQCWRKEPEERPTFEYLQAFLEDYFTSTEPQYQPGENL

IC50 (LIM domain kinase 1 [1]) [nM]	solubility kinetic [2] [µg/mL]	solubility kinetic [3] [µg/mL]	logD [4]	microsomal CLint at 1 µM [5] [µL/min/mg]	microsomal CLint at 1 µM [6] [µL/min/mg]	IC50 (LIM domain kinase 1 [7]) [nM]	IC50 (LIM domain kinase 2) [nM]	inhibition at 20 µM (CYP3A4) [%]	inhibition at 20 µM (CYP1A2) [%]	inhibition [8] [%]	inhibition [9] [%]	inhibition [10] [%]	inhibition [11] [%]	inhibition [12] [%]	inhibition [13] [%]	inhibition [14] [%]	inhibition [15] [%]	inhibition at 20 µM (CYP2D6 (Homo sapiens)) [%]	Compound	inhibition at 10 µM (hERG (KCNH2)) [%]	also measured
95	3.1 (≈ 7.96 µM)	50 (≈ 128 µM)	2.8	56	77	2400	103	82	28	13	95	56	71	60	7	0	10	9	Nc1ncnc2c1sc1cc(-c3cccc(NC(=O)N4CCCC4)c3)ccc12	0	
95	12.5 (≈ 29.9 µM)	> 100	2.5	27	165	1600	157	82	11	25	88	53	75	71	0	33	24	12	CN1CCN(C(=O)Nc2cccc(-c3ccc4c(c3)sc3c(N)ncnc34)c2)CC1	27	fraction unbound [16]: 0.037
97	< 1.6	50 (≈ 118 µM)	2.7	111	116	4100	133	99	13	31	98	60	85	23	13	8	13	74	Nc1ncnc2c1sc1cc(-c3cccc(C(=O)NCCc4cccnc4)c3)ccc12	11	fraction unbound [16]: 0.014
81	6.3 (≈ 14.1 µM)	50 (≈ 112 µM)	2.1	< 6	68	1400		70	17	31	97	65	97	45	0	23	18		Nc1ncnc2c1sc1cc(-c3cccc(C(=O)NCC(=O)N4CCOCC4)c3)ccc12	0	fraction unbound [16]: 0.053
